These compounds were tested on HBV (assay: In vitro anti-HBV activity in HepG2.2.15 cell line (intracellular HBV DNA by qPCR at 1 μM)). Conditions: Hepatitis B virus, 144 h; HepG2.2.15 cells, 1 μM compound, 6 days, intracellular HBV DNA as percentage compared to vehicle control (0.5% DMSO).
Type: cell-based
Procedure: The stable transfected HBV cell line, called HepG2.2.15 cells was a valuable model with high reproducibility and commonly used for drug screening. To identify the anti-HBV activity, HepG2.2.15 cells were seeded at 5×10^5 cells/well with high glucose Dulbecco's modified Eagle medium (DMEM) containing 10% heat inactivated fetal bovine serum (FBS), 300 mg/L G418, non-essential amino acids (NEAA) 100 units/ml Antibiotic-Antimycotic, and allowed to stand for an overnight in an incubator set at 37° C. and 5% C02. HepG2.2.15 cells in each well were treated with the medium containing a compound (1 μM with 0.5% dimethyl sulfoxide (DMSO final concentration) for three days in the incubator. After that the medium was removed and fresh medium containing the compound was added to the cells for another 3 days. After 6 days of treatment, intracellular HBV DNA was extracted and determined by using quantitative real-time PCR (qPCR) technique with specific primers. Intrahepatic HBV DNA viral load was reported as percentage compared to vehicle control (0.5% DMSO) as shown in Table A.
“B” means % ranging between 80 and 90; “C” means % ranging between 70 and 80; “D” means % ranging between 60 and 70; “E” means % ranging between 45 and 60, “F” means %<45.
For Cc1cc(C)c(C(=O)N2CC[C@H](C(=O)Nc3cc(F)c(F)c(F)c3)C2)[nH]1 [Example 34, (S)-1-(3,5-dimethyl-1H-pyrrole-2-carbonyl)-N-(3,4,5-trifluorophenyl)pyrrolidine-3-carboxamide], the activity at 1 µM was > 90%.
O=C(Nc1cc(F)c(F)c(F)c1)[C@H]1CCN(C(=O)c2ccc3cc[nH]c3c2)C1 [Example 35, (S)-1-(1H-indole-6-carbonyl)-N-(3,4,5-trifluorophenyl)pyrrolidine-3-carboxamide] gave an activity at 1 µM of 70 to 80%.
O=Cc1c[nH]c2cc(C(=O)N3CC[C@H](C(=O)Nc4cc(F)c(F)c(F)c4)C3)ccc12 [Example 36, (S)-1-(3-formyl-1H-indole-6-carbonyl)-N-(3,4,5-trifluorophenyl)pyrrolidine-3-carboxamide] gave an activity at 1 µM of 70 to 80%.
For O=C(Nc1cc(F)c(F)c(F)c1)[C@H]1CCN(C(=O)c2ccc3c(CNCCO)c[nH]c3c2)C1 [Example 37, (S)-1-(3-(((2-hydroxyethyl)amino)methyl)-1H-indole-6-carbonyl)-N-(3,4,5-trifluorophenyl) pyrrolidine-3-carboxamide], the activity at 1 µM was > 90%.
CC(=O)c1c[nH]c(C(=O)N2CC[C@H](C(=O)Nc3cc(F)c(F)c(F)c3)C2)c1 [Example 38, (S)-1-(4-acetyl-1H-pyrrole-2-carbonyl)-N-(3,4,5-trifluorophenyl)pyrrolidine-3-carboxamide] was tested, and the activity at 1 µM was > 90%.
For CC(O)c1c[nH]c(C(=O)N2CC[C@H](C(=O)Nc3cc(F)c(F)c(F)c3)C2)c1 (stereo partly drawn) [Example 39, (3S)-1-(4-(1-hydroxyethyl)-1H-pyrrole-2-carbonyl)-N-(3,4,5-trifluorophenyl)pyrrolidine-3-carboxamide], the activity at 1 µM was 70 to 80%.
For N#Cc1c[nH]c(C(=O)N2CC[C@H](C(=O)Nc3ccc(F)c(Cl)c3)C2)c1 [Example 40, (S)—N-(3-chloro-4-fluorophenyl)-1-(4-cyano-1H-pyrrole-2-carbonyl)pyrrolidine-3-carboxamide], the activity at 1 µM was > 90%.
N#Cc1cc(NC(=O)[C@H]2CCN(C(=O)c3[nH]c4ccccc4c3Cl)C2)ccc1F [Example 43, (S)-1-(3-chloro-1H-indole-2-carbonyl)-N-(3-cyano-4-fluorophenyl)pyrrolidine-3-carboxamide] was tested, and the activity at 1 µM was 45 to 60%.
Cc1ccc(C(=O)N2CC[C@H](C(=O)Nc3cc(F)c(F)c(F)c3)C2)s1 [Example 44, (S)-1-(5-methylthiophene-2-carbonyl)-N-(3,4,5-trifluorophenyl)pyrrolidine-3-carboxamide] was tested, and the activity at 1 µM was 70 to 80%.
For O=C(Nc1cc(F)c(F)c(F)c1)[C@H]1CCN(C(=O)c2cc3cnccc3[nH]2)C1 [Example 46, (S)-1-(1H-pyrrolo[3,2-c]pyridine-2-carbonyl)-N-(3,4,5-trifluorophenyl)pyrrolidine-3-carboxamide], the activity at 1 µM was 60 to 70%.
With O=C(Nc1cc(F)c(F)c(F)c1)[C@H]1CCN(C(=O)c2cc3ccncc3[nH]2)C1 [Example 47, (S)-1-(1H-pyrrolo[2,3-c]pyridine-2-carbonyl)-N-(3,4,5-trifluorophenyl)pyrrolidine-3-carboxamide] the activity at 1 µM was 80 to 90%.
For O=C(Nc1cc(F)c(F)c(F)c1)[C@H]1CCN(C(=O)c2ccc[nH]2)C1 [Example 48, (S)-1-(1H-pyrrole-2-carbonyl)-N-(3,4,5-trifluorophenyl)pyrrolidine-3-carboxamide], the activity at 1 µM was 80 to 90%.
With O=C(Nc1cc(F)c(F)c(F)c1)[C@H]1CCN(C(=O)c2cc3cc(F)c(F)cc3[nH]2)C1 [Example 49, (S)-1-(5,6-difluoro-1H-indole-2-carbonyl)-N-(3,4,5-trifluorophenyl)pyrrolidine-3-carboxamide] the activity at 1 µM was > 90%.
With N#Cc1ccc(C(=O)N2CC[C@H](C(=O)Nc3cc(F)c(F)c(F)c3)C2)[nH]1 [Example 50, (S)-1-(5-cyano-1H-pyrrole-2-carbonyl)-N-(3,4,5-trifluorophenyl)pyrrolidine-3-carboxamide] the activity at 1 µM was 70 to 80%.
Cc1ccc(C(=O)N2CC[C@H](C(=O)Nc3cc(F)c(F)c(Br)c3)C2)[nH]1 [Example 51, (S)—N-(3-bromo-4,5-difluorophenyl)-1-(5-methyl-1H-pyrrole-2-carbonyl)pyrrolidine-3-carboxamide] gave an activity at 1 µM of 45 to 60%.
With O=C(Nc1cc(F)c(F)c(Br)c1)[C@H]1CCN(C(=O)c2cc3cnccc3[nH]2)C1 [Example 53, (S)—N-(3-bromo-4,5-difluorophenyl)-1-(1H-pyrrolo[3,2-c]pyridine-2-carbonyl)pyrrolidine-3-carboxamide] the activity at 1 µM was 70 to 80%.
O=C(Nc1cc(F)c(F)c(F)c1)[C@H]1CCN(C(=O)c2cc3cccnc3[nH]2)C1 [Example 54, (S)-1-(1H-pyrrolo[2,3-b]pyridine-2-carbonyl)-N-(3,4,5-trifluorophenyl)pyrrolidine-3-carboxamide] gave an activity at 1 µM of 70 to 80%.
In the case of Cc1ccc2[nH]c(C(=O)N3CC[C@H](C(=O)Nc4cc(F)c(F)c(F)c4)C3)cc2c1 [Example 55, (S)-1-(5-methyl-1H-indole-2-carbonyl)-N-(3,4,5-trifluorphenyl)pyrrolidine-3-carboxamide], the activity at 1 µM is reported as > 90%.
O=C(Nc1cc(F)c(F)c(F)c1)[C@H]1CCN(C(=O)c2ccc(CO)[nH]2)C1 [Example 56, (S)-1-(5-(hydroxymethyl)-1H-pyrrole-2-carbonyl)-N-(3,4,5-trifluorophenyl)pyrrolidine-3-carboxamide] was tested, and the activity at 1 µM was > 90%.
In the case of O=C(Nc1cc(F)c(F)c(F)c1)[C@H]1CCN(C(=O)c2cc3cc(F)ccc3[nH]2)C1 [Example 57, (S)-1-(5-fluoro-1H-indole-2-carbonyl)-N-(3,4,5-trifluorophenyl)pyrrolidine-3-carboxamide], the activity at 1 µM is reported as > 90%.
Cc1ccc(C(=O)N2CC[C@H](C(=O)Nc3cc(F)c(F)c(Br)c3)[C@@H]2C)[nH]1 [Example 58, (2S,3S)—N-(3-bromo-4,5-difluorophenyl)-2-methyl-1-(5-methyl-1H-pyrrole-2-carbonyl)pyrroline-3-carboxamide] gave an activity at 1 µM of 70 to 80%.
With O=C(Nc1cc(F)c(F)c(F)c1)[C@H]1CCN(C(=O)c2[nH]c3ncccc3c2Cl)C1 [Example 59, (S)-1-(3-chloro-1H-pyrrolo[2,3-b]pyridine-2-carbonyl)-N-(3,4,5-trifluorophenyl)pyrrolidine-3-carboxamide] the activity at 1 µM was 45 to 60%.
CC(C)c1ccc(C(=O)N2CC[C@H](C(=O)Nc3cc(F)c(F)c(F)c3)C2)[nH]1 [Example 61, (S)-1-(5-isopropyl-1H-pyrrole-2-carbonyl)-N-(3,4,5-trifluorophenyl)pyrrolidine-3-carboxamide] showed an activity at 1 µM of 60 to 70%.
Work on Cc1ccc(C(=O)N2CC[C@H](C(=O)Nc3cc(F)c(F)c(Cl)c3)C2)[nH]1 [Example 62, (S)—N-(3-chloro-4,5-difluorophenyl)-1-(5-methyl-1H-pyrrole-2-carbonyl)pyrrolidine-3-carboxamide] yielded an activity at 1 µM of 45 to 60%.
Compound N#Cc1c(C(=O)N2CC[C@H](C(=O)Nc3cc(F)c(F)c(F)c3)C2)[nH]c2ncccc12 [Example 63, (S)-1-(3-cyano-1H-pyrrolo[2,3-b]pyridine-2-carbonyl)-N-(3,4,5-trifluorophenyl)pyrrolidine-3-carboxamide] has an activity at 1 µM of 70 to 80%.
C[C@H]1[C@@H](C(=O)Nc2cc(F)c(F)c(F)c2)CCN1C(=O)c1cc2ncccc2[nH]1 [Example 64, (2S,3S)-2-methyl-1-(1H-pyrrolo[3,2-b]pyridine-2-carbonyl)-N-(3,4,5-trifluorophenyl) pyrrolidine-3-carboxamide] gave an activity at 1 µM of 70 to 80%.
For Cc1ccc(C(=O)N2CC[C@H](C(=O)Nc3ccc(F)c(C#N)c3)[C@@H]2C)[nH]1 [Example 66, (2S,3S)—N-(3-cyano-4-fluorophenyl)-2-methyl-1-(5-methyl-1H-pyrrole-2-carbonyl)pyrrolidine-3-carboxamide], the activity at 1 µM was 45 to 60%.
O=C(Nc1cc(F)c(F)c(F)c1)[C@H]1CCN(C(=O)c2nc3cccnc3[nH]2)C1 [Example 67, (S)-1-(3H-imidazo[4,5-b]pyridine-2-carbonyl)-N-(3,4,5-trifluorophenyl)pyrrolidine-3-carboxamide] showed an activity at 1 µM of 45 to 60%.
For Cc1cc(NC(=O)[C@H]2CCN(C(=O)c3nc4ccccc4[nH]3)C2)ccc1F [Example 68, (S)-1-(1H-benzo[d]imidazole-2-carbonyl)-N-(4-fluoro-3-methylphenyl)pyrrolidine-3-carboxamide], the activity at 1 µM was < 45%.
Compound O=C(Nc1ccc(F)c(Cl)c1)[C@H]1CCN(C(=O)c2nc3cccnc3[nH]2)C1 [Example 69, (S)—N-(3-chloro-4-fluorophenyl)-1-(3H-imidazo[4,5-b]pyridine-2-carbonyl)pyrrolidine-3-carboxamide] has an activity at 1 µM of 70 to 80%.
O=C(NCc1cnc(Cl)s1)[C@H]1CCN(C(=O)c2[nH]c3ccccc3c2Cl)C1 [Example 71, (S)-1-(3-chloro-1H-indole-2-carbonyl)-N-((2-chlorothiazol-5-yl)methyl)pyrrolidine-3-carboxamide] was tested, and the activity at 1 µM was 70 to 80%.
C[C@H]1[C@@H](C(=O)Nc2cc(F)c(F)c(F)c2)CCN1C(=O)c1[nH]c2ccccc2c1CO [Example 72, (2S,3S)-1-(3-(hydroxymethyl)-1H-indole-2-carbonyl)-2-methyl-N-(3,4,5-trifluorophenyl)pyrrolidine-3-carboxamide] gave an activity at 1 µM of 60 to 70%.
Compound O=C(Nc1cc(F)c(F)c(F)c1)[C@H]1CCN(C(=O)c2ccc(C3CC3)[nH]2)C1 [Example 73, (S)-1-(5-cyclopropyl-1H-pyrrole-2-carbonyl)-N-(3,4,5-trifluorophenyl)pyrrolidine-3-carboxamide] has an activity at 1 µM of 45 to 60%.

Source: patent publication US20230391752A1, “PYRROLIDINE-3-CARBOXAMIDE DERIVATIVES AND RELATED USES” (Chulalongkorn University, priority 2020, published 2023)
